Data set [1] relates to exon 20 insertion mutations of EGFR and HER2. The following applies: reported clinical trial results; cited from earlier work.
Data set [2] deals with EGFR exon 20ins. The following applies: advanced non-small cell lung cancer; cited from earlier work.
Data set [3] in a line: Solid-state stability study (HPLC and XRPD analysis). It is filed as physicochemical.
Data set [4] is described as follows: in vivo. Particulars: rat, po, 30 mg/kg.
Experimental: (§1) SD rats received a single oral gavage administration of citrate crystalline form I, mesylate crystalline form I, and free base crystalline form I, respectively. Blood samples were collected at various time points to determine drug concentrations in rat plasma post administration of tested substance and calculate PK-related parameters.
(§2) The prepared test sample solutions were analyzed by the analytical department of the present test facility using LC-MS/MS.
(§3) Animals were fasted (≥10 h) with free access to water from the day before dosing. On the test day, rats were weighed respectively, marked at the tail, and blank blood samples were collected before administration. Blood was collected via tail vein.
(§4) 0.1 mL of whole blood was collected into EDTA-Na2 anticoagulant tubes, inverted 3-4 times to mix well, centrifuged at 10,000 g, 4 °C for 5 min to separate plasma, and stored at - 80 °C until analysis. Blood was collected via tail vein.
(§5) Plasma samples were analyzed by the analytical department of the test facility using LC-MS/MS.
A short description of data set [5]: Pharmacokinetic study in rats, single oral gavage. Particulars: SD rats, 30 mpk.
Experimental: as §1, §2, §3, §4, §5
For data set [6] the following is noted: 37 °C.

Molecules are shown by their SMILES. Like-named read-outs stand apart in the source and are kept apart here. Bounds are passed on as bounds.

As usually defined, the AUC(0-t) is the area under the concentration-time curve up to a stated or last time point. High values mean more exposure, low ones less exposure. A word on the Cmax: it is the highest concentration seen after dosing. One may read the Tmax as the time from dosing to the highest level. For orientation: half-life means the time in which the quantity being followed falls by half. For orientation: Solubility means the dissolved amount per volume that the medium holds. A higher Solubility goes with much dissolved substance.

Regarding `C=CC(=O)Nc1cc(Nc2ncc(C(=O)OC(C)C)c(-c3cn(C)c4ccccc34)n2)c(OC)cc1N(C)CCN(C)C` [TAK-788], the objective response rate in data set [1] is reported as 43%.

As to `C=CC(=O)Nc1cc(Nc2nccc(Nc3cc(Cl)c(F)cc3C(C)(C)O)n2)c(OC)cc1N1CC[C@@H](N(C)C)C1` [DZD9008], the objective response rate in data set [2] is reported as 40%.

With `C=CC(=O)Nc1cc(Nc2ncc(C(=O)OC(C)C)c(-c3cn(C)c4ccccc34)n2)c(OC)cc1N(C)[C@@H]1[C@@H]2CN(C)C[C@@H]21` [Citrate crystalline form I], the Appearance result in data set [3] (25°C/60%RH, day 3) is listed as “Unchanged”; in data set [3] (25°C/60%RH, day 7), “Unchanged”; in data set [3] (25°C/95±5%RH, day 3), “Unchanged”; in data set [3] (25°C/95±5%RH, day 7), “Unchanged”; in data set [3] (40°C/75%RH, day 3), “Unchanged”; in data set [3] (40°C/75%RH, day 7), “Unchanged”. Moreover, the Appearance result in data set [3] (60 °C, day 3) is listed as “Unchanged”; in data set [3] (60 °C, day 7), “Unchanged”; in data set [3] (80 °C, day 1) it was “Unchanged”; in data set [3] (80 °C, day 3), “Unchanged”. Moreover, the “Crystalline Form” value in data set [3] (25°C/60%RH, day 3, XRPD) was “Unchanged”; in data set [3] (25°C/60%RH, day 7, XRPD), “Unchanged”; in data set [3] (25°C/95±5%RH, day 3, XRPD), “Unchanged”; in data set [3] (25°C/95±5%RH, day 7, XRPD), “Unchanged”; in data set [3] (40°C/75%RH, day 3, XRPD), “Unchanged”; in data set [3] (40°C/75%RH, day 7, XRPD), “Unchanged”. Besides, the “Crystalline Form” value is recorded as “Unchanged” in data set [3] (60 °C, day 3, XRPD); “Unchanged” in data set [3] (60 °C, day 7, XRPD); “Unchanged” in data set [3] (80 °C, day 1, XRPD); “Unchanged” in data set [3] (80 °C, day 3, XRPD). The Purity % was 98.68% in data set [3] (25°C/60%RH, day 3, open vial); 98.61% in data set [3] (25°C/60%RH, day 7, open vial); 98.66% in data set [3] (25°C/95±5%RH, day 3, open vial); 98.67% in data set [3] (25°C/95±5%RH, day 7, open vial); 98.66% in data set [3] (40°C/75%RH, day 3, open vial); 98.59% in data set [3] (40°C/75%RH, day 7, open vial). Also, the Purity % in data set [3] (60 °C, day 3, open vial) turned out to be 98.68%; in data set [3] (60 °C, day 7, open vial), 98.66%; in data set [3] (80 °C, day 1, open vial), 98.71%; in data set [3] (80 °C, day 3, open vial), 98.68%; in data set [3] (day 0 (baseline before storage), mean of 3 parallel experiments) it was 98.74%. In data set [3] (under the five storage conditions), the “crystalline form and chemical purity” value is given as “did not change significantly”. Besides, in data set [4], the AUC(0-t) is 1700 ng·h/mL. Also, in data set [4], the highest concentration (Cmax) amounted to 126 ng/mL. In data set [4], the Tmax was 5 h. Also, the half-life in data set [4] is 3.01 h. Further, the “in vivo exposure in rats compared with free base crystalline form I” value in data set [5] was “higher”. The “Solubility” value was over 5000 µg/mL in data set [6] (FaSSIF, 0.5 h, 30 min); over 5000 µg/mL in data set [6] (FaSSIF, 2 h, 120 min); 3990 µg/mL in data set [6] (FaSSIF, 24 h, 1440 min); over 5020 µg/mL in data set [6] (FeSSIF, 0.5 h, 30 min); over 5020 µg/mL in data set [6] (FeSSIF, 2 h, 120 min); over 5020 µg/mL in data set [6] (FeSSIF, 24 h, 1440 min). Further, the “Solubility” value in data set [6] (H2O, 0.5 h, 30 min) was 1910 µg/mL; in data set [6] (H2O, 2 h, 120 min) it was 1990 µg/mL; in data set [6] (H2O, 24 h, 1440 min), 2440 µg/mL; in data set [6] (SGF, 0.5 h, 30 min), over 5040 µg/mL; in data set [6] (SGF, 2 h, 120 min) it was over 5040 µg/mL; in data set [6] (SGF, 24 h, 1440 min) it was over 5040 µg/mL.

Source of the values: patent EP4782444A1, “CRYSTAL FORM OF PYRIMIDINE ANILINE COMPOUND, PREPARATION METHOD, AND USE” (TYK Medicines, Inc., priority 2023, dated 2025).
